Tests used:
[1] = 1-Octanol-water partition coefficient, log P of the compound; assay type: physicochemical
[2] = Critical micelle concentration of the compound; assay type: ADME
Albumin = Albumin (Bos taurus, UniProt P02769); assay: Binding affinity to bovine serum albumin; settings: cattle, isolated protein
Albumin, sequence (P02769 whole entry): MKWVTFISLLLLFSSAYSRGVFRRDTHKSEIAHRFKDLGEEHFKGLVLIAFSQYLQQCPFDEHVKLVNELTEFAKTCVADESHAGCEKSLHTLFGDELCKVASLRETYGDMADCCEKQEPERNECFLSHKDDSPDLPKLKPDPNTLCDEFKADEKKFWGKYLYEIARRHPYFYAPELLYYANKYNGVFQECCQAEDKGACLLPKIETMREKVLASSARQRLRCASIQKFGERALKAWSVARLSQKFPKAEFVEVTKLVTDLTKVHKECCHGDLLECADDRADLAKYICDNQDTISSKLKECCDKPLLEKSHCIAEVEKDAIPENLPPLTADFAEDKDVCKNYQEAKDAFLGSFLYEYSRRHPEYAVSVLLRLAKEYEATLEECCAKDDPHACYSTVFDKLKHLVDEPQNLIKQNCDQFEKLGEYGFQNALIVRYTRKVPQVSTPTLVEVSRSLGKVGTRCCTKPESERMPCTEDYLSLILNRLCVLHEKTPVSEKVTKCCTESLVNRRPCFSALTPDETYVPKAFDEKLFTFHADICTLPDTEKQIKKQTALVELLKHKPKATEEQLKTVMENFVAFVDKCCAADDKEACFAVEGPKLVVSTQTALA

| Structure (SMILES) | logP [1] | log1/CMC [2] | log K (Albumin) |
| --- | --- | --- | --- |
| CCCC[N+](C)(C)Cc1ccccc1 | -1.85 |  |  |
| CCCCCCCCCCCCCCCCCCC[N+](C)(C)Cc1ccccc1.[Cl-] |  | 4.74 |  |
| CCCCCCCCCCCCCCCCCC[N+](C)(C)Cc1ccccc1.[Cl-] |  | 4.48 |  |
| CCCCCCCCCCC[N+](C)(C)Cc1ccccc1.[Cl-] |  | 1.85 | 4.55 |
| CCCCCCCCCCCCCC[N+](C)(C)Cc1ccccc1.[Cl-] [MIRISTALKONIUM CHLORIDE] |  | 2.92 | 3.51 |
| CCCCCCCCCCCC[N+](C)(C)Cc1ccccc1.[Cl-] [BENZODODECINIUM CHLORIDE] |  | 2.16 | 4.26 |
| CCCCCCCCCCCCCCCC[N+](C)(C)Cc1ccccc1.[Cl-] [CETALKONIUM CHLORIDE] |  | 3.62 | 3.49 |
| CCCCCCCCCCCCC[N+](C)(C)Cc1ccccc1.[Cl-] [BENZALKONIUM CHLORIDE] |  | 2.57 | 3.85 |
| CCCCCCCCCCCCCCC[N+](C)(C)Cc1ccccc1.[Cl-] |  | 3.22 | 3.57 |
| CCCCCCCCCCCCCCCCC[N+](C)(C)Cc1ccccc1.[Cl-] |  | 4 | 3.55 |
| CCCCCCCCCC[N+](C)(C)Cc1ccccc1.[Cl-] |  | 1.47 | 5 |
| CCCCCCCC[N+](C)(C)Cc1ccccc1 | -0.29 |  |  |
| CC[N+](C)(C)Cc1ccccc1 | -3.38 |  |  |
| CCCCCC[N+](C)(C)Cc1ccccc1 | -1.53 |  |  |
| CCCCCCCC[N+](C)(C)Cc1ccccc1.[Cl-] |  | 0.67 | 4.82 |

Reference: ChEMBL document CHEMBL3272310, “Effect of chain length on critical micelle formation and protein binding of quaternary ammonium compounds” (J Med Chem, 1976)
